For assay [1], the system named is Enterococcus faecium. The assay is described as follows: Antibacterial activity against vancomycin B-resistant Enterococcus faecium SR23598. It is filed as functional.
Assay [2] has as its system Enterococcus faecium. The assay is described as follows: Antibacterial activity against vancomycin A-resistant Enterococcus faecium SR7940. It is filed as functional.
Assay [3] deals with Staphylococcus aureus. The assay is described as follows: Antibacterial activity against vancomycin A-resistant Staphylococcus aureus VRS2. It is filed as functional.
In assay [4] the test system is Enterococcus faecium. In words: Antibacterial activity against vancomycin-susceptible Enterococcus faecium SR16972. In kind it is functional.
The subject of assay [5] is Staphylococcus aureus subsp. aureus RN4220. In words: Binding affinity to Staphylococcus aureus RN4220 recombinant C-terminal His6-tagged PBP2 expressed in Escherichia coli cells at 2 uM incubated for 2 hrs measured after UV irradiation by LC-MALDI-MS/MS analysis.
The test system is the same in assay [6]. The assay is described as follows: Binding affinity to penicillin-binding protein-2 transpeptidase domain in Staphylococcus aureus RN4220 cell membrane at 1 uM incubated for 1 hr measured after UV irradiation by pull-down assay.
For assay [7] the test system is unchanged. The assay is described as follows: Binding affinity to penicillin-binding protein-2 in Staphylococcus aureus RN4220 cell membrane at 50 uM incubated for 20 mins measured after UV irradiation by SDS-PAGE based immunostaining.
Assay [8] has as its system Staphylococcus aureus. In words: Antibacterial activity against vancomycin-susceptible Staphylococcus aureus RN4220. In kind it is functional.
Assay [9] concerns Staphylococcus aureus subsp. aureus RN4220. In words: Displacement of photoaffinity probe 1 from penicillin-binding protein-2 in Staphylococcus aureus RN4220 cell membrane incubated for 5 mins prior to photoaffinity probe 1 challenge for 5 mins measured after UV irradiation by SDS-PAGE based western blot analysis. A general note: A western blot detects proteins with antibodies after separation by electrophoresis.

This note sets out measurements from ChEMBL document CHEMBL3217742, “Mapping of a lipoglycopeptide antibiotic binding site on Staphylococcus aureus penicillin-binding protein 2 using a vancomycin photoaffinity analogue” (2012).

Molecules are shown by their SMILES. In brackets after ≈: the same amount, converted by molar mass. Activity calls are given as the source filed them.

Usually MIC stands for the smallest concentration in the dilution series that meets the test's criterion for growth inhibition. The low end stands for a more susceptible organism, the high end for a less susceptible organism. With `CN[C@H](CC(C)C)C(=O)N[C@H]1C(=O)N[C@@H](CC(N)=O)C(=O)N[C@H]2C(=O)N[C@H]3C(=O)N[C@H](C(=O)N[C@H](C(=O)O)c4cc(O)cc(O)c4-c4cc3ccc4O)[C@H](O)c3ccc(c(Cl)c3)Oc3cc2cc(c3O[C@@H]2O[C@H](CO)[C@@H](O)[C@H](O)[C@H]2O[C@H]2C[C@](C)(N)[C@H](O)[C@H](C)O2)Oc2ccc(cc2Cl)[C@H]1O` [VANCOMYCIN], the minimum inhibitory concentration (MIC) in the assay with Enterococcus faecium [1], in the assay with Enterococcus faecium [2] and in the assay with Staphylococcus aureus [3] was more than 64 µg/mL each time.

Regarding `CN[C@H](CC(C)C)C(=O)N[C@H]1C(=O)N[C@@H](CC(N)=O)C(=O)N[C@H]2C(=O)N[C@H]3C(=O)N[C@H](C(=O)N[C@H](C(=O)NCCCOCCOCCOCCCNC(=O)CCCC[C@@H]4SC[C@@H]5NC(=O)N[C@@H]54)c4cc(O)cc(O)c4-c4cc3ccc4O)[C@H](O)c3ccc(c(Cl)c3)Oc3cc2cc(c3O[C@@H]2O[C@H](CO)[C@@H](O)[C@H](O)[C@H]2O[C@H]2C[C@](C)(NCc3ccc(NC(=O)c4ccc(C5(C(F)(F)F)N=N5)cc4)nc3)[C@H](O)[C@H](C)O2)Oc2ccc(cc2Cl)[C@H]1O`, the minimal inhibitory concentration (MIC) in the assay with Enterococcus faecium [4] is 0.5 µg/mL (≈ 0.228 µM); against Enterococcus faecium [1], 0.5 µg/mL (≈ 0.228 µM); with Staphylococcus aureus [8], 1 µg/mL (≈ 0.455 µM); in the assay with Enterococcus faecium [2], 2 µg/mL (≈ 0.911 µM); with Staphylococcus aureus [3] it was 2 µg/mL (≈ 0.911 µM). Also, the result in assay [5], in [6] and in assay [7] was Active.

In the case of `CN[C@H](CC(C)C)C(=O)N[C@H]1C(=O)N[C@@H](CC(N)=O)C(=O)N[C@H]2C(=O)N[C@H]3C(=O)N[C@H](C(=O)N[C@H](C(=O)O)c4cc(O)cc(O)c4-c4cc3ccc4O)[C@H](O)c3ccc(c(Cl)c3)Oc3cc2cc(c3O[C@@H]2O[C@H](CO)[C@@H](O)[C@H](O)[C@H]2O[C@H]2C[C@](C)(NCc3cccc(NC(=O)c4ccc(C)c(OCc5ccccc5)c4[N+](=O)[O-])c3)[C@H](O)[C@H](C)O2)Oc2ccc(cc2Cl)[C@H]1O`, the MIC against Enterococcus faecium [4] was determined as 0.25 µg/mL (≈ 0.137 µM); against Enterococcus faecium [1], 0.25 µg/mL (≈ 0.137 µM); in the assay on Staphylococcus aureus [8], 0.125 µg/mL (≈ 0.0685 µM); against Enterococcus faecium [2], 1 µg/mL (≈ 0.548 µM); in the assay with Staphylococcus aureus [3], 0.5 µg/mL (≈ 0.274 µM). In [9], the inhibition result was “Dose-dependent effect”.
